We go through two compounds from patent publication US20010051624A1, “Method and compositions for the treatment of allergic conditions using PGD2 receptor antagonists” (priority 2000, published 2001).

The test relates to ovalbumin-sensitized guinea pigs. As to the kind of experiment: Guinea pig allergic rhinitis model: intranasal pressure after nasal ovalbumin challenge. As to conditions: 60 minutes prior to ovalbumin 1% challenge, AUC 0-30 min. Format: in vivo. Here is the method: Male Hartley guinea pigs (250-500 g) purchased from Charles River (St-Constant, Qc, Canada) were used. They were housed in a temperature and humidity controlled environment, in groups of four or five with food and water available ad libitum. Experimental procedures were approved by the Animal Care Committee at Merck Frosst Centre for Therapeutic Research, in accordance with the guidelines of the Canadian Council on Animal Care.
Sensitization: The animals were injected intraperitoneally with 0.5 ml of an ovalbumin solution (100 μg/ml) containing 100 mg/ml aluminum hydroxide in 0.9% saline. […]
Following the surgical preparation, gallamine (2 mg/kg, i.v.) was administered to suppress spontaneous breathing. […] The changes in the intranasal pressure were monitored through a pressure transducer (Validyne DP-45, membrane 6-26, Validyne Corp., Northridge, Calif.) connected to a side arm of the nasal cannula. Values were recorded every 5 seconds using a data acquisition system (Modular Instruments, Malvern, Pa.). […]
The effects of test compounds were evaluated on the increased intranasal pressure following a nasal challenge with an aerosol of ovalbumin 1% for 3 minutes. […] The changes in intranasal pressure were recorded for the 30 minutes following the nasal challenge, using the peak response. […]

Take `C[S@+]([O-])c1cccc2c3c(n(Cc4ccc(Cl)cc4)c12)[C@@H](CC(=O)O)CCC3` [Compound I, 2-[(1R)-9-(4-chlorobenzyl)-8-((S)-methylsulfinyl)-2,3,4,9-tetrahydro-1H-carbazol-1-yl]acetic acid]: the “effect on the increase in intranasal pressure induced by ovalbumin aerosol” value (Compound I 1 mg/kg i.p. alone) is recorded as “no significant effect”. On to `COc1ccc(CN(CCN(C)C)c2ccccn2)cc1` [mepyramine], for which the “effect on the increase in intranasal pressure induced by ovalbumin aerosol” value (mepyramine 5 mg/kg i.p. alone) is on record as “no significant effect”.
